# Test results as given in PMC4386068 (Journal of chemical information and modeling, 2015).
# Molecular target: InhA (Mtb enoyl-acyl-carrier-protein reductase) (Mycobacterium tuberculosis, UniProt P9WGR1)
# Test: InhA enzyme inhibition assay, % inhibition at […] without pre-incubation
# Type: biochemical
# Settings: read-out: % inhibition at 100 nM
# Chain of InhA (Mtb enoyl-acyl-carrier-protein reductase) (P9WGR1 whole entry, looked up): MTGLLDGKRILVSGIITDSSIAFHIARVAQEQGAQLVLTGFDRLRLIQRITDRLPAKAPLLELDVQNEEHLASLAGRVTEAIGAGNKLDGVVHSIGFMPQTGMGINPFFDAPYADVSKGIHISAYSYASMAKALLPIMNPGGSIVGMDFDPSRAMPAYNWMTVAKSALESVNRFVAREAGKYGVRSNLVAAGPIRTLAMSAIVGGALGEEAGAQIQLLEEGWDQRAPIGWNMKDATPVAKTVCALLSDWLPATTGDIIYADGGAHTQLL
compound,measurement,value
CCCCCCc1ccc(Oc2ccccc2C)c(O)c1 [PT70],inhibition at 0.1 µM,75%
